# Tested on: INSM1, ASCL1, NFIB and MYC in DMS79 and GLC16
# Test: RT-qPCR of super enhancer (SE)-associated genes
# Assay type: cell-based, human
# Conditions: 24 hr
# Experimental: Cell pellets were collected and then subjected to total RNA extraction using RNeasy Plus Mini Kit (QIAGEN, Cat #74136) according to the manufacturer's instructions, or using TRIzol:Chloroform phase-separation by centrifugation followed by RNA precipitation using isopropanol. The extracted RNA was reversely transcribed into cDNA using the High-Capacity RNA-to-cDNA™ Kit (Thermo Fisher Scientific, Cat #4387406) according to the manufacturer's instructions. The obtained cDNA samples were diluted and used for RT-qPCR. PowerUp™ SYBR™ Green Master Mix (Thermo Fisher Scientific, Cat #A25742) or TaqMan Gene Expression Master Mix (Life Technologies, Cat #4369514). Gene specific primers with sequences listed in Table 3 were used for PCR amplification and detection on the StepOnePlus™ Real-Time PCR System (Thermo Fisher Scientific). RT-qPCR data were normalized to Actb (mouse cells) or GUSB (human cells) and presented as fold changes of gene expression in the test sample compared to the control.
smiles,measurement,value
"CN(C)C/C=C/C(=O)Nc1ccc(C(=O)Nc2cccc(Nc3ncc(Cl)c(-c4c[nH]c5ccccc45)n3)c2)cc1 [THZ1, reference compound]","expression of super enhancer (SE)-associated genes including INSM1, ASCL1, NFIB and MYC",significant reduction

# Reference: US20230114207A1, “THE COMBINATION OF CYCLIN DEPENDENT KINASE 7 INHIBITOR AND IMMUNOTHERAPY FOR TREATMENT OF CANCER” (Dana-Farber Cancer Institute, Inc., priority 2019, published 2023)
